Assay results as given in US20040214238A1 (priority 2003, published 2004).
Several values for one entry are separate records, joined by “and”; a condition that tells them apart may be missing. Equal values may be shown once.

Key:
[1] = tested on: N-type calcium current in neurons of the dorsal root ganglia; format: cell-based, rat
CaV1.3 L-type channels = details: cited from earlier work
[2] = biological target: vanilloid receptor (VR1) in DRG neurons (Rattus norvegicus, UniProt O35433); assay: capsaicin screening by whole cell voltage clamp at -60 mV; details: 2 μM capsaicin, 128 responsive neurons
Chain of vanilloid receptor (VR1) in DRG neurons (O35433 whole entry): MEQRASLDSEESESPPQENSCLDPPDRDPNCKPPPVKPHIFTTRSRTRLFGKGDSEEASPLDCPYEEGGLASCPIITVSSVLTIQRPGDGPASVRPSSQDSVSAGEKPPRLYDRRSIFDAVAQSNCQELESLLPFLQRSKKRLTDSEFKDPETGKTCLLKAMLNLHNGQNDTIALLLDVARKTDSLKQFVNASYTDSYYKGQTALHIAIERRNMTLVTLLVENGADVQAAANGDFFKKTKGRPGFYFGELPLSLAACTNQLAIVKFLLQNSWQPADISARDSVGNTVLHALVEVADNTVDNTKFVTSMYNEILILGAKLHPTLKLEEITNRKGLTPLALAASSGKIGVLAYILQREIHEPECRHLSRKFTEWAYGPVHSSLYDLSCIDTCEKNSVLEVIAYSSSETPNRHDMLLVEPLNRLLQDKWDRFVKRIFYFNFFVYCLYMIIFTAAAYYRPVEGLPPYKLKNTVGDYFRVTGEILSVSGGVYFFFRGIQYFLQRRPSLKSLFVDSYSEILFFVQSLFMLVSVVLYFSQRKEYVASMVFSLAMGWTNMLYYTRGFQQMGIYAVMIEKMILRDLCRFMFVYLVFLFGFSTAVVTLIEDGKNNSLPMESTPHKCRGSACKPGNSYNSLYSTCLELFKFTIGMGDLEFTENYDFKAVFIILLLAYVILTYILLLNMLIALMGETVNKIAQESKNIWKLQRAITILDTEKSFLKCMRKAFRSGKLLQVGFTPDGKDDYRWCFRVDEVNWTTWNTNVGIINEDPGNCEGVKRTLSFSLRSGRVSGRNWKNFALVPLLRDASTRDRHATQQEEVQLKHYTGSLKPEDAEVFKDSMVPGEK
Procedure: Viable neurons were identified using whole cell voltage clamp recordings based on the presence of robust voltage-gated sodium and potassium currents. Neurons were then exposed to 2 μM capsaicin (Sigma). After exposure, the bath was washed and the cell allowed to recover. Capsaicin-responsive cells had to recover after wash to be included. Capsaicin-non-responsive neurons were expose at least twice to capsaicin before the cell was collected and counted as capsaicin-non-responsive. Coverslips in the study were limited to two exposures of capsaicin to avoid desensitization. 1-2 MΩ microelectrodes were filled with an internal solution consisting of 90 mM KCl, 10 mM NaCl, 5 mM MgCl2, 40 mM HEPES, 5 mM EGTA and the pH was adjusted to 7.4 with KOH. The bath solution contained 140 mM NaCl, 5 mM KCl, 2 mM CaCl2, 0.5 mM MgCl2, 10 mM HEPES, and 15 mM Dextrose. […]
Viable neurons were identified by the presence of robust voltage-gated sodium and potassium currents during brief depolarizations from a holding potential of −80 mV. […] Capsaicin-non-responsive neurons were exposed to capsaicin at least twice before the cell was harvested and counted as capsaicin-non-responsive. […] For capsaicin screening, currents were recorded using 1-2 MΩ microelectrodes filled with an internal solution consisting of 90 mM KCl, 10 mM NaCl, 5 mM MgCl2 40 mM HEPES, and 5 mM EGTA adjusted to a pH of 7.4 with KOH. […]

N-type calcium channel = details: in vivo; cited from earlier work

In the case of “ω-conotoxin GVIA (CKSPGSSCSPTSYNCCRSCNPYTKRCY) [ω-Ctx GVIA]”, the “ω-Ctx GVIA-sensitive current as % of the total whole cell calcium current” value [1] is given as 71±2% and 68±2%, the “ω-Ctx GVIA-sensitive, N-type current as component of the total Ca current” value [1] is given as ~70% and the “effect on CaV1.3 L-type current” value (CaV1.3 L-type channels) is given as “inhibited by high concentrations”. The “effect on neuronal CaV1.3 L-type channels” value (CaV1.3 L-type channels) was “not ω-Ctx GVIA-sensitive”.

In the case of `COc1cc(CNC(=O)CCCC/C=C/C(C)C)ccc1O` [capsaicin], the “average amplitude of capsaicin-induced inward current” value [2] is reported as 986±118 pA.

For `CSCC[C@@H]1NC(=O)[C@H](CC(C)C)NC(=O)[C@H](CCCNC(=N)N)NC(=O)[C@H](CO)NC(=O)[C@@H]2CSSC[C@@H]3NC(=O)[C@H](CO)NC(=O)CNC(=O)[C@H]([C@@H](C)O)NC(=O)[C@H](CSSC[C@H](N)C(=O)N[C@@H](CCCCN)C(=O)NCC(=O)N[C@@H](CCCCN)C(=O)NCC(=O)N[C@@H](C)C(=O)N[C@@H](CCCCN)C(=O)N2)NC(=O)[C@H](CSSC[C@@H](C(N)=O)NC(=O)[C@H](CCCCN)NC(=O)CNC(=O)[C@H](CO)NC(=O)[C@H](CCCNC(=N)N)NC3=O)NC(=O)[C@H](CC(=O)O)NC(=O)[C@H](Cc2ccc(O)cc2)NC1=O` [MVIIA], the analgesic activity (N-type calcium channel) is listed as “powerful analgesic” and the “side effects as analgesic” value (N-type calcium channel) is listed as “undesirable side effects”.
